EP0398621A2, “Immunoassay of elastase-1” (SHIONOGI SEIYAKU KABUSHIKI KAISHA trading under the name of …, priority 1989, dated 1990)

Experiments:
¹²⁵I-labelled E1 [1] = experiment: Radioimmunoassay: effect of α₁-antitrypsin or α₂-macroglobulin on the binding rate of anti-E1 serum with ¹²⁵I-labelled E1; parameters: species or system human
Experimental: (§1) As for measuring buffer solution, 0.01 M phosphate buffer (pH 7.4) containing 0.1 mM Boc-TACK, 0.9% sodium chloride, 0.05% sodium azide and 0.2% bovine serum albumin was used unless otherwise mentioned. One hundred µl of standard E1 solution (0.5 - 50ng/ml) or sample serum was taken into a polystyrene tube. To this were added 100 µl each of ¹²⁵I-labelled E1 solution and anti-E1 serum, which was then mixed and incubated for 3 hours at 37°C. Next, 500 µl of the preparation of the second antibody was added, which was mixed and incubated for 30 minutes at 37°C. The incubated product was centrifuged (3000 rpm, 5 minutes), after which the supernatant was removed by suction and the radioactivity of the precipitate was measured.
Radioimmunoassay was performed using α₁-antitrypsin or α₂-macroglobulin solution in place of the standard E1 solution, whereby the effect of these on the binding rate was examined. As for measuring buffer solution, one mentioned in above-mentioned (7) was used in one method (A method), and one not containing Boc-TACK was used in another method (B method), and one containing PMSF in place of Boc-TACK was used in third method (C method) (Fig. 2).

E1 = experiment: Radioimmunoassay standard curves of Boc-TACK-treated E1 and untreated E1; type: binding, human; settings: standard curve of Boc-TACK-treated E1 compared with untreated E1
Experimental: as §1
To evaluate the effect of Boc-TACK on the immunological reaction of E1, standard curves were drawn of Boc-TACK-treated E1 and untreated E1, and then comparison was made between the two.

¹²⁵I-labelled E1 [2] = experiment: Gel filtration: binding of serum inhibitor to ¹²⁵I-labelled E1 in human serum; settings: 30 minutes at 37°C, Ultrogel AcA 44, ¹²⁵I-labelled E1 treated with the inhibitor
Experimental: To human serum was added ¹²⁵I-labelled E1, which was incubated for 30 minutes at 37°C. This was then subjected to gel filtration [Ultrogel AcA 44 (made by IBF Biotechnichs), ⌀ 1.5 x 55cm, developing solution: 0.1 M phosphate buffer (pH 7.1)]. The eluate was collected in 1-ml portions and the radioactivity in each fraction was measured.
When the human serum to which ¹²⁵I-labelled E1 not treated with Boc-TACK had been added was subjected to gel filtration, the ¹²⁵I-labelled E1 was all eluted in the fraction of its complex containing α₁-antitrypsin and α₂-macroglobulin (Fig. 1-a).

elastase-1 = settings: prior art statement; cited from earlier work

Compound | binding rate with increases in serum inhibitor (¹²⁵I-labelled E1 [1]; α₁-antitrypsin or α₂-macroglobulin solution in place of standard E1, inhibitor in measuring buffer solution) | binding rate with α₂-macroglobulin in a high concentration (¹²⁵I-labelled E1 [1]; α₂-macroglobulin in a high concentration, 0.1 mM Boc-TACK in measuring buffer solution) | effect on the immunological reaction of E1 (E1) | elution of ¹²⁵I-labelled E1 in free fraction or complex fraction (¹²⁵I-labelled E1 [2]) | capability of inhibiting the binding of α₁-antitrypsin and α₂-macroglobulin to elastase-1 (elastase-1)
CC(NC(=O)[C@H](C)NC(=O)[C@H](C)NC(=O)OC(C)(C)C)C(=O)CCl (some centres unmarked) [Boc-TACK, Nα-[N-(tert-butoxycarbonyl)alanyl]-N-(3-chloro-1-methyl-2-oxopropyl)alanineamide] | little change was observed in the binding rate | only a slight decrease | did not affect the immunological reaction of E1 in any way | none of it was found in the complex fraction | 
O=S(=O)(F)Cc1ccccc1 [PMSF, phenylmethanesulfonyl fluoride] |  |  |  |  | weak capability
